We go through two substances from PMC8556439, “Modeling the time course of ComX: towards molecular process control for Bacillus wild-type cultivations” (AMB Express, 2021).

Series [1] is classed as physicochemical. To be noted: pH 7. How it is done:
(§1) Due to the high complexity of ComX purification, the pheromone was measured with a bioassay based on the principle provided by Magnuson et al. ([1994]). Thereby, reporter strain CT2 (∆comX::kan; PsrfA-lacZ) can be used as an assay reagent and a ComX-dependent expression of lacZ can be determined by measuring the β-galactosidase activity with the Miller assay (Miller [1972]). The employed bioassay is further in line with a recently published method, provided by Dogsa et al. ([2021]). A detailed description of the working principle and further validation experiments are given in the supplementary information. In brief, a main culture of strain CT2 was inoculated with preculture II to a starting OD600 of 0.1 and incubated for 3 h at 120 rpm and 37 °C. […] Bnk values were measured using the respective sterile cultivation medium instead of sampled cell-free supernatant. The limit of detection (LOD) and limit of quantification (LOQ) was calculated from 20 samples using Eqs. […]
(§2) For autodegradation studies, strain DSM 10^ T was additionally cultivated in 3000 mL shake flasks using MSM with 40 g/L glucose. […] The incubation was performed in biological duplicates for 24 h at 120 rpm and 37 °C and samples were taken regularly and analyzed for OD600, ComX and peptidase activity.

The conditions of series [2]: cited from earlier work. Here is the method:
The LC–MS analysis of extracellular ComX also confirmed degradation after reaching a peak during cultivation process, which was also detected by the bioassay (Additional file 1: Figure S2a). Resembling Henkel et al. ([2013]), experiments were performed with respect to (i) autodegradation, (ii) extracellular degradation and (iii) intracellular degradation (Fig. 1), to obtain deeper understanding of the degradation kinetics of ComX. […] Here, an increase in EACSP was initially observed and, after reaching a maximum, a slight downward trend was seen, which was also accompanied by calculated degradation rates. The highest modeled EACSP = 66.3 ∆A/(h·mL) was reached after 20.5 h, which is concomitant to the highest measured degradation rate after 16 h. […] However, to unveil a potential autodegradation effe ... || To allow for this optimization strategy, profound quantitative knowledge must be gathered as an initial step. This was done in the presented study regarding surfactin production and ComX pheromone progression, providing new insights into this crosstalk. Several bioreactor batch fermentations with different initial glucose concentrations were performed to illustrate different lengths of growth phases of B. subtilis DSM 10^ T. Thereby the general progression of ComX activity was consistent for all bioreactor set-ups, regardless of varying experimental set-ups. During exponential growth, an initi ...

The next series concerns extracellular proteases. Briefly: ComX extracellular degradation in cell-free supernatant of bioreactor cultivation. The format is in vitro ADME, B. subtilis DSM 10T. To be noted: spectinomycin 100 µg/mL, incubated 120 rpm, 37 °C, sampled 0-8 h, ComX bioassay, biological duplicates. Here is the method: as §1
Cell-free supernatant was obtained from bioreactor cultivation with 40 g/L glucose by two centrifugation steps for 30 min at 4816 g and 4 °C (Heraeus X3R, Thermo Fisher Scientific GmbH, Braunschweig, Germany). […] Samples were taken after t = 0, 1, 2, 3, 4, 6 and 8 h and analyzed for ComX and peptidase activity and the ComX degradation rate in (MU/h) was calculated from the measured data.

For series [3], the system named is B. subtilis BKK31700 (∆comX). Description: ComX intracellular degradation: ComX deficient strain cultivated in spent medium. The format is in vitro ADME. The following applies: ComX bioassay, biological duplicates. Here is the method: as §1, §2
The next series concerns PsrfA. The following applies: ref Magnuson et al. [1994], Okada et al. [2005], [2007], Dogsa et al. [2021], cited from earlier work. How it is done: (§3) To allow for this optimization strategy, profound quantitative knowledge must be gathered as an initial step. This was done in the presented study regarding surfactin production and ComX pheromone progression, providing new insights into this crosstalk. Several bioreactor batch fermentations with different initial glucose concentrations were performed to illustrate different lengths of growth phases of B. subtilis DSM 10^ T. Thereby the general progression of ComX activity was consistent for all bioreactor set-ups, regardless of varying experimental set-ups. During exponential growth, an initi ...

The conditions of series [4]: ref Rangarajan and Clarke [2015]; cited from earlier work. Here is the method:
as §3

As for “ADPITRQ WGD [ComX, quorum sensing pheromone of B. subtilis, farnesylated peptide secreted into culture supernatant; not purified, measured in supernatant]”, the “remaining ComX activity after 8 h of incubation (autodegradation study)” value in series [1] came to 251.1 ± 17.1 MU. Further, the “heat stability of ComX (time stable)” value in series [2] (at 80 °C, ref Magnuson et al. ([1994])) is given as 12 h. Also, the “sensitivity of ComX to extracellular proteases” value in series [2] (especially serine proteases, ref Spacapan et al. ([2018]) and Magnuson et al. ([1994])) is “sensitive to extracellular proteases”. In addition, the “storage time after which a degradation effect was observed” value in series [2] (purified ComX, storage, ref Dogsa et al. ([2021])) is reported as 100 days. Further, the “stability of ComX in acidic environments” value in series [2] (ref Okada et al. [2007]) is recorded as “does not appear to be stable”. In addition, in the series with extracellular proteases (cell-free supernatant from bioreactor cultivation 40 g/L glucose taken after approximately 16 h), the “ComX degradation rate (highest)” value turned out to be 9.2 ± 2.1 MU/h. The same substance returned a ComX degradation rate in the series on extracellular proteases (cell-free supernatant from bioreactor cultivation 40 g/L glucose taken after approximately 35 h) of 8.4 ± 0.5 MU/h. Further, the “ComX activity remaining after 24 h of cultivation (intracellular degradation study)” value in series [3] (BKK31700 cells in spent filtered medium of DSM 23778, 4 g/L glucose added, 24 h, 120 rpm, 37 °C) is reported as 103.2 ± 11.4 MU. In addition, the “initial ComX activity at t0 (intracellular degradation study)” value in series [3] (washed BKK31700 cells resuspended in spent filtered medium of DSM 23778, 4 g/L glucose added) stood at 96.5 ± 3.0 MU. The “ComX concentration at saturation of response” value in the series on PsrfA is listed as “around 10 nM”. Moreover, in the series with PsrfA (read-out: ComX concentration at half maximum response), the EC50 was 3 to 4 nM.

For surfactin, in series [4], the “pH at which surfactin precipitation may occur” value is listed as 5.0 to 6.0 pH.
